Test results reported in patent US20040053872A1, “New sequences” (priority 2000, published 2004).
Read-outs that look alike come from different tables or passages of the source. Strand notation (5' to 3'): a small letter for the sugar, then the base; units joined by * are phosphorothioate-linked, units joined directly phosphodiester-linked; [ ] holds rarer units or linkages, { } end groups; capitals alone tell only the bases. r = 2'-OH (RNA)

Tests used:
[1] = target: T1, recombinant HIV-1 RT E478Q (Human immunodeficiency virus type 1 group M subtype B, UniProt P03366, E1077Q); conditions: binding 90 min at 33° C.
T1 construct: performed by recombinant HIV-1 RT:s with defined
Procedure: (§1) (iii) Protocol for RT binding inhibition (BIC) assay: The study was performed in a modified DNA polymerase assay. The inhibitors were serially diluted in five steps, enzyme dilution was added and the enzyme/inhibitor mixtures were incubated for 30 minutes at 33° C. Aliquots of the enzyme/inhibitor mixture were transferred to each well of a microtiter plate containing either immobilised primer, or primer/template. The enzyme was allowed to bind to the immobilised polymer for 90 min at 33° C. The amount of RT used was standardised to an activity corresponding to 40-60 pg (3.3-5.0×10^−16 mol) reference HIV-1 RT per well. The plates were then washed to remove unbound enzyme whereupon the amount of bound enzyme was determined by addition of the appropriate reaction solution for polymerisation (i e a reaction solution devoid of primer for studies of primer binding and a reaction solution devoid of both primer and template for studies of binding to primed template). The polymerase reaction was allowed to proceed for 3 hours at 33° C., whereupon the reaction was terminated by a wash of the plate.
(§2) The capacity of the indicated substances to inhibit the binding to primer or to primed DNA template of a panel of recombinant HIV 1 subtype B RTs was studied according to “Protocol for RT binding inhibition (BIC) assay” (protocol (iii) above).

[2] = target: T2, recombinant HIV-1 RT L100I (Human immunodeficiency virus type 1 group M subtype B, UniProt P03366, L699I); conditions: binding 90 min at 33° C.
T2 construct: performed by recombinant HIV-1 RT:s with defined
Procedure: as §1, §2

[3] = test system: panel of recombinant HIV 1 subtype B RTs; test: RT binding inhibition (BIC) assay, whole RT panel; conditions: all conditions studied
Procedure: as §1, §2

[4] = target: T1, recombinant HIV-1 RT E478Q; test: RT assay: inhibition of RNA dependent DNA polymerisation (modified Lenti RT assay); assay type: biochemical; conditions: read-out: IC50 of indicated inhibitor in RT assay
Procedure: The flourimetric RT assay (Cavidi® Lenti RT activity kit), available from Cavidi Tech, Uppsala, Sweden, was used for the determination of RT activity. In short, poly(rA) covalently bound to the wells of a 96 well microtiter plate serves as template for the incorporation of 5-bromodeoxyuridine 5′-triphosphate (BrdUTP) during the reverse transcription step at 33° C. The amount of bromodeoxyuridine monophosphate (BrdUMP) incorporated into DNA is detected with an alkaline phosphatase (Ap) conjugated, anti-BrdU monoclonal antibody. An Ap substrate, 4-methylumbelliferyl phosphate, is finally used for fluorimetric product detection.
(i) Protocol for determination of inhibition of RNA dependent DNA polymerisation: The inhibition studies were performed in a modified Lenti RT assay. The inhibitors were serially diluted in five steps, whereupon enzyme dilution was added and the enzyme/inhibitor mixtures were incubated for 30 minutes at 33° C. The enzyme reaction was initiated by addition of 100 μl aliquots of the enzyme/inhibitor mixture to each well of a microtiter plate containing 100 μl RT reaction mixture per well. The polymerase reaction was allowed to proceed for 3 hours at 33° C., whereupon the reaction was terminated by a wash of the plate. […] The amount of RT used was standardised to an activity corresponding to 90-130 pg (7-10×10^−16 mol) reference HIV-1 RT per well
The capacity of the indicated substances to inhibit the enzymes in a panel of recombinant HIV 1 subtype B RTs was studied according to “Protocol for determination of inhibition of RNA dependent DNA polymerisation” (protocol (i) above). The final nucleotide substrate (BrdUTP) concentration was 0.35 μM, and the primer (odT22) amount was 0.03 ng per well.
The RT reaction time used was 3 hours and the results are depicted in FIG. 8 (A-C).

[5] = target: T3, recombinant HIV-1 RT K103N/E478Q (Human immunodeficiency virus type 1 group M subtype B, UniProt P03366, E1077Q/K702N); conditions: binding 90 min at 33° C.
T3 construct: performed by recombinant HIV-1 RT:s with defined
Procedure: as §1, §2

[6] = target: recombinant HIV-1 RT, ref RT (HIV type B, clone BH 10) (Human immunodeficiency virus type 1 group M subtype B, UniProt P03366); conditions: read-out: Inhibition of binding to primer (BIC50), immobilised primer, binding 90 min at 33° C.
Procedure: as §1, §2

[7] = test system: Mut1 (RNase H inactive mutant of HIV-1 RT); test: Gel mobility shifts in native polyacrylamide gel electrophoresis (PAGE); assay type: binding; conditions: native 20% PAGE; ammonium sulphate up to […]
Description: In the following experiment, the terms “34-mer” and “35-mer” refer to SEQ ID NO:3 (produced in example A1 above) and SEQ ID NO:4 (produced in example A2 above), respectively. […] Natural RT molecules have an RNase H activity which normally cleaves RNA molecules. […] This mutant is produced according to the method given in Schatz, O., Cromme, F. V., Grüninger-Leitch, F. and Le Grice, S. F. J., Febs Letter. Vol.257, No.2 p.311-314. This RT-mutant is further on referred to as Mut1. The following experiments are carried out:
2. Gel mobility shifts in polyacrylamide gel electrophoresis (PAGE) experiments.
a) Native 20% PAGE gel is run at 4-5° C. Samples are incubated at 4° C. in 50 mM hepes buffer and 5 mM magnesium chloride and varying salt concentrations as indicated below.
Samples are incubated for 90 min at 4° C. prior to a further 10 min incubation at 4° C. with ammonium sulphate and/or KCl. Samples applied to lanes 4 and 5 have twice the amount of 34-mer used for the other samples.
b) Native 20% PAGE gel run at 4-5° C. Samples are incubated at 4° C. in 50 mM hepes buffer and 5 mM magnesium chloride, with varying concentrations of ammonium sulphate.
Native 20% PAGE gel is run at 4-5° C. Samples are incubated at 4° C. in 50 mM hepes buffer, 15 mM manganese sulphate, 1 mM EDTA and 0.25 mM EGTA.
Samples are incubated 10 min at room temperature prior to a 60 min incubation at 4° C. One μl of sample solution is applied per lane. Electrophoresis is conducted with up to 400 volts while cooling to approximately 4° C. After 0.209 kWh the gel is silver stained.

[8] = immobilised primer, read-out: Inhibition of binding to primer (BIC50)
[9] = immobilised primer/template, read-out: Inhibition of binding to template/primer (BIC50)
[10] = enzyme/inhibitor preincubated 30 minutes at 33° C., BrdUTP 0.35 μM, odT22 0.03 ng per well, 3 hours

Substance: substance 199: 35-mer RNA molecule having the sequence set out in SEQ ID NO:5; similar to SEQ ID NO:4 with some naturally occurring nucleotide derivatives (GCUCAGNCGGNAGAGCANCAGACUUUUAANCUGAN; RNA, backbone, methylation of C and the base at N not given here; naturally occurring modified nucleosides at n positions)
- IC50 [1, 8]: 7 nM
- IC50 [1, 9]: 14 nM
- IC50 [2, 8]: 7 nM
- Capacity to prevent RT binding to primer or primed template [3]: had the capacity to prevent RT binding to either primer alone or to primed template
- IC50 ([4]; RT and inhibitor added directly to the assay mixture without preincubation): 11 nM
- IC50 [4, 10]: 6 nM

Substance: substance 198: 15-mer RNA phosphorothioate with the base sequence of tRNALys3 anticodon stem and loop, SEQ ID NO:7 (rC*rA*rG*rA*rC*rU*rU*rU*rU*rA*rA*rU*rC*rU*rG) [reference compound]
- IC50 [1, 8]: > 1000 nM
- IC50 [1, 9]: > 1000 nM
- IC50 [5, 8]: 400 nM
- IC50 [5, 9]: 1000 nM
- IC50 [6]: 100 nM
- IC50 [2, 8]: > 1000 nM
- IC50 [2, 9]: > 1000 nM
- Complex with Mut1 at high salt concentrations [7]: dissociates from Mut1
- Capacity to prevent RT binding to primer or primed template [3]: significantly less capacity to prevent RT binding
- IC50 [4, 10]: 320 nM
